# Reference: patent US20250361230A1, “LATS Inhibitors and Uses Thereof” (The USA, as Represented by the Secretary, Dept. of Heath …, priority 2022, published 2025)
# Biological target: T1, AKT Kinase-NanoLuc fusion in HEK-293 cells (Homo sapiens, UniProt P31749)
# T1 construct: host or cells: HEK-293
# Assay: NanoBRET target engagement assay in transfected HEK-293 cells, AKT
# Type: cell-based
# Conditions: Table 28, NanoBRET, HEK-293 cells; read-out: AKT1 (Cellular) IC50
# From the text: The NanoBRET™ assay measures kinase engagement in real time in the context of the intact cell. The assay uses a Kinase-NanoLuc® fusion vector expressing a kinase protein to which a luciferase tag has been added, a cell-permeant fluorescent NanoBRET™ tracer, a NanoLuc® substrate, and an extracellular NanoLuc® inhibitor. Upon expression of the luciferase-tagged kinase, cells will produce a strong BRET signal only in the presence of the NanoBRET™ tracer. The extracellular NanoLuc® inhibitor ensures that the BRET signal observed emanates only from live cells. Because the BRET signal has tight distance constraints, addition of the test compound will decrease the BRET signal if the compound competes with the NanoBRET™ tracer for binding to the kinase domain. Under the appropriate tracer conditions established by the manufacturer, quantitative intracellular affinity and relative potency can then be determined using Mass Action model equations.
# HEK-293 cells were purchased from ATCC. FuGENEHD Transfection Reagent, Kinase-NanoLuc® fusion plasmids, Transfection Carrier DNA, NanoBRET™ Tracers and dilution buffer, NanoBRET™ Nano-Glo Substrate, Extracellular NanoLuc® Inhibitor were obtained from Promega.
# Assays were conducted following Promega assay protocol with some modifications as described further below. HEK-293 Cells were transiently transfected with Kinase-NanoLuc® Fusion Vector DNA by FuGENE HD Transfection Reagent. Test compounds were delivered into 384 well assay plate by Echo 550 (Labcyte Inc, Sunnyvale, CA). Transfected cells were harvested and mixed with NanoBRET™ Tracer Reagent and dispensed into 384 well plates and incubated at 37° C. in 5% CO2 cell culture incubator for 1 hour. The NanoBRET™ Nano-Glo Substrate plus Extracellular NanoLuc® Inhibitor Solution were added into the wells of the assay plate and incubated for 2-3 minutes at room temperature. The donor emission wavelength (460 nm) and acceptor emission wavelength (600 nm) were measured in the EnVision plate reader. The BRET Ratios were calculated. BRET Ratio=[(Acceptor sample÷Donor sample)−(Acceptor no-tracer control÷Donor no-tracer control)]. The IC50 values of compounds were calculated with Prism GraphPad program.
# • 1. Transient Transfection of HEK-293 Cells NanoLuc® Fusion Vector DNA • 1). Cultivate HEK-293 cells (70-80% confluence) appropriately prior to assay. Trypsinize and collect HEK-293 cells. • 2). Prepare lipid: DNA complexes as follows: • a. Prepare a […] solution of DNA in Opti-MEM™ without serum that consists of the following ratios of carrier DNA and DNA encoding NanoLuc® fusion. 9.0 µg/mL of Transfection Carrier DNA, […] of NanoLuc® fusion vector DNA and 1 mL of Opti-MEM™ without phenol red. Mix thoroughly. • b. Add 30 μl of FuGENE HD Transfection Reagent into each milliliter of DNA mixture to form lipid: DNA complex. • c. Mix by inversion 10 times. • d. Incubate at ambient temperature for 20 minutes to allow complexes to form. • 3). In a sterile, conical tube, mix 1 part of lipid: DNA complex with 20 parts of HEK-293 cells in suspension. Mix gently by inversion 5 times. • 4). Dispense cells+lipid: DNA complex into a sterile tissue culture dish and incubate for 22-24 hours. • 2. Addition of Test Compounds (dry plate shooting): Each test compound is delivered from the compound source plate to the wells of 384-well white NBS plate by Echo 550. • 3. Preparation of Cells with NanoBRET™ Tracer Reagent • 1). Remove medium from dish with transfected HEK-293 cells via aspiration, trypsinize and allow cells to dissociate from the dish. • 2). Neutralize trypsin using medium containing serum and centrifuge at 200× g for 5 minutes to pellet the cells. Adjust the cell density to 2×10^5 cells/mL in Opti-MEM™ without phenol red. • 3). Prepare Complete 20× NanoBRET™ Tracer Reagent with Tracer Dilution Buffer. • 4). Dispense one part of Complete 20× NanoBRET™ Tracer Reagent to 20 parts of cells in the tube. Mix gently by inversion 10 times. • 5). […]
# T1 sequence (P31749 whole entry, the tested form may be a part): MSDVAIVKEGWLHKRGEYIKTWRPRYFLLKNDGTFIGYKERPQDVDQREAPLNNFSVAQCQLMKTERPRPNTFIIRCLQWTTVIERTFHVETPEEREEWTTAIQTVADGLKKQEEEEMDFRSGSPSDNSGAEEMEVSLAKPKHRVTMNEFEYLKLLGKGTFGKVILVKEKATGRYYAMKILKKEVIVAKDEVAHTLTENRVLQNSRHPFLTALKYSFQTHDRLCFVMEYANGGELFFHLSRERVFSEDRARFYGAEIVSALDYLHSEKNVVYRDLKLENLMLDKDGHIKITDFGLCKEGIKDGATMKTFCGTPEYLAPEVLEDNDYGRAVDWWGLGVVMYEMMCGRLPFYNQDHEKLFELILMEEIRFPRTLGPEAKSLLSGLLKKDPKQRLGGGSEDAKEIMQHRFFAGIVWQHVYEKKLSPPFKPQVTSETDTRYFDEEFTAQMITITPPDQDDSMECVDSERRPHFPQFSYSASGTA
row,Structure (SMILES),IC50 [µM]
1,"C[C@@H]1CNC[C@H](C)[C@@]1(O)c1ccc(-c2ccnc3[nH]cc(F)c23)cc1Cl [Compound 1, (3S,4S,5R)-4-(2-chloro-4-(3-fluoro-1H-pyrrolo[2,3-b]pyridin-4-yl)phenyl)-3,5-dimethylpiperidin-4-ol]",21.2
2,"C[C@@H]1CNC[C@H](C)[C@@]1(O)c1ccc(-c2ccnc3[nH]cc(F)c23)cc1 [Compound 2, (3R,4s,5S)-4-(4-(3-fluoro-1H-pyrrolo[2,3-b]pyridin-4-yl)phenyl)-3,5-dimethylpiperidin-4-ol]",> 50
3,"C[C@@H]1CNC[C@H](C)[C@@]1(O)c1ccc(-c2ccnc3[nH]cc(F)c23)cc1F [Compound 7, (3S,4s,5R)-4-(2-fluoro-4-(3-fluoro-1H-pyrrolo[2,3-b]pyridin-4-yl)phenyl)-3,5-dimethyl piperidin-4-ol]",8.64
4,"C[C@@H]1CNC[C@H](C)[C@@]1(O)c1ccc(-c2ccnc3[nH]cc(F)c23)nc1 [Compound 8, (3S,4s,5R)-4-(6-(3-fluoro-1H-pyrrolo[2,3-b]pyridin-4-yl)pyridin-3-yl)-3,5-dimethylpiperidin-4-ol]",8.64
5,"Cc1cc(-c2ccnc3[nH]cc(F)c23)ccc1[C@@]1(O)[C@H](C)CNC[C@@H]1C [Compound 9, (3S,4s,5R)-4-(4-(3-fluoro-1H-pyrrolo[2,3-b]pyridin-4-yl)-2-methylphenyl)-3,5-dimethylpiperidin-4-ol]",15.2
6,"C[C@@H]1CN(Cc2ccccn2)C[C@H](C)[C@@]1(O)c1c(F)cc(-c2ccnc3[nH]cc(F)c23)cc1F [Compound 17, (3S,4s,5R)-4-(2,6-difluoro-4-(3-fluoro-1H-pyrrolo[2,3-b]pyridin-4-yl)phenyl)-3,5-dimethyl-1-(pyridin-2-ylmethyl)piperidin-4-ol]",24.1
7,"C[C@@H]1CN(C2CCS(=O)(=O)CC2)C[C@H](C)C1(O)c1c(F)cc(-c2ccnc3[nH]cc(F)c23)cc1F (stereo partly drawn) [Compound 31, 4-((3S,5R)-4-(2,6-difluoro-4-(3-fluoro-1H-pyrrolo[2,3-b]pyridin-4-yl)phenyl)-4-hydroxy-3,5-dimethylpiperidin-1-yl)tetrahydro-2H-thiopyran 1,1-dioxide]",39.4
8,"C[C@@H]1CN(C)C[C@H](C)[C@@]1(O)c1ccc(-c2ccnc3[nH]cc(F)c23)cc1 [Compound 39, (3R,4s,5S)-4-(4-(3-fluoro-1H-pyrrolo[2,3-b]pyridin-4-yl)phenyl)-1,3,5-trimethylpiperidin-4-ol]",> 50
9,"C[C@@H]1CN(C2COC2)C[C@H](C)[C@@]1(O)c1c(F)cc(-c2ccnc3[nH]cc(F)c23)cc1F [Compound 45, (3S,4s,5R)-4-(2,6-difluoro-4-(3-fluoro-1H-pyrrolo[2,3-b]pyridin-4-yl)phenyl)-3, S-dimethyl-1-(oxetan-3-yl)piperidin-4-ol]",> 30
10,"C[C@@H]1CN(C2CCC2)C[C@H](C)[C@@]1(O)c1c(F)cc(-c2ccnc3[nH]cc(F)c23)cc1F [Compound 46, (3R,4s,5S)-1-cyclobutyl-4-(2,6-difluoro-4-(3-fluoro-1H-pyrrolo[2,3-b]pyridin-4-yl)phenyl)-3,5-dimethylpiperidin-4-ol]",31.5
11,"Cc1cc(-c2ccnc3[nH]cc(F)c23)ccc1[C@@]1(O)[C@H](C)CN(C2CCS(=O)(=O)CC2)C[C@@H]1C [Compound 55, 4-((3R,4s, 5S)-4-(4-(3-fluoro-1H-pyrrolo[2,3-b]pyridin-4-yl)-2-methylphenyl)-4-hydroxy-3,5S-dimethylpiperidin-1-yl)tetrahydro-2H-thiopyran 1,1-dioxide]",19.8
12,"Cc1cc(-c2ccnc3[nH]cc(F)c23)cc(F)c1[C@@]1(O)[C@H](C)CN(C2CCS(=O)(=O)CC2)C[C@@H]1C [Compound 57, 4-((3R,4s,5S)-4-(2-fluoro-4-(3-fluoro-1H-pyrrolo[2,3-b]pyridin-4-yl)-6-methylphenyl)-4-hydroxy-3,5-dimethylpiperidin-1-yl)tetrahydro-2H-thiopyran 1,1-dioxide]",31.9
13,C[C@@H]1CN(C(=O)CN)C[C@H](C)[C@@]1(O)c1c(F)cc(-c2ccnc3[nH]cc(F)c23)cc1F [Compound 58],18.2
14,"Cc1cc(-c2ccnc3[nH]cc(F)c23)cc(F)c1[C@@]1(O)[C@H](C)CN(C(=O)CN)C[C@@H]1C [Compound 61, 2-amino-1-((3R,4s,5S)-4-(2-fluoro-4-(3-fluoro-1H-pyrrolo[2,3-b]pyridin-4-yl)-6-methylphenyl)-4-hydroxy-3,5-dimethylpiperidin-1-yl)ethan-1-one]",3.44

# More lines, now with the values ahead:
row,IC50 [µM],Structure (SMILES)
1,16.1,C[C@@H]1CNC[C@H](C)[C@@]1(O)c1c(F)cc(-c2ccnc3[nH]cc(F)c23)cc1F [Compound 13]
2,4.95,"C[C@@H]1CNC[C@H](C)[C@@]1(O)c1ccc(-c2ccnc3[nH]cc(F)c23)cc1OC(F)(F)F [Compound 14, (3S,4s,5R)-4-(4-(3-fluoro-1H-pyrrolo[2,3-b]pyridin-4-yl)-2-(trifluoromethoxy)phenyl)-3,5-dimethylpiperidin-4-ol]"
3,2.51,"C[C@@H]1CN(C)C[C@H](C)[C@@]1(O)c1cnc(-c2ccnc3[nH]cc(F)c23)cc1Cl [Compound 22, (3S,4s,5R)-4-(4-chloro-6-(3-fluoro-1H-pyrrolo[2,3-b]pyridin-4-yl)pyridin-3-yl)-1,3,5-trimethylpiperidin-4-ol]"
4,56.2,"Cc1cc(-c2ccnc3[nH]cc(F)c23)ccc1[C@@]1(O)[C@H](C)CN(C2COC2)C[C@@H]1C [Compound 24, (3S,4s,5R)-4-(4-(3-fluoro-1H-pyrrolo[2,3-b]pyridin-4-yl)-2-methylphenyl)-3,5-dimethyl-1-(oxetan-3-yl)piperidin-4-ol]"
5,17,"Cc1cc(-c2ccnc3[nH]cc(F)c23)ccc1[C@@]1(O)[C@H](C)CN(C(C)C)C[C@@H]1C [Compound 29, (3S,4s, 5R)-4-(4-(3-fluoro-1H-pyrrolo[2,3-b]pyridin-4-yl)-2-methylphenyl)-1-isopropyl-3,5-dimethylpiperidin-4-ol]"
6,> 30,"Cc1cc(-c2ccnc3[nH]cc(F)c23)cc(F)c1C1(O)[C@H](C)CN(C2COC2)C[C@@H]1C (stereo partly drawn) [Compound 30, (3S,5R)-4-(2-fluoro-4-(3-fluoro-1H-pyrrolo[2,3-b]pyridin-4-yl)-6-methylphenyl)-3,5-dimethyl-1-(oxetan-3-yl)piperidin-4-ol]"
7,8.64,"C[C@@H]1CN(C)C[C@H](C)[C@@]1(O)c1ccc(-c2ccnc3[nH]cc(F)c23)nc1 [Compound 41, (3R,4s,5S)-4-(6-(3-fluoro-1H-pyrrolo[2,3-b]pyridin-4-yl)pyridin-3-yl)-1,3,5-trimethylpiperidin-4-ol]"
8,> 30,"Cc1cc(-c2ccnc3[nH]cc(F)c23)ncc1[C@@]1(O)[C@H](C)CN(C2CCS(=O)(=O)CC2)C[C@@H]1C [Compound 51, 4-((3R,4s,5S)-4-(6-(3-fluoro-1H-pyrrolo[2,3-b]pyridin-4-yl)-4-methylpyridin-3-yl)-4-hydroxy-3,5-dimethylpiperidin-1-yl)tetrahydro-2H-thiopyran 1,1-dioxide]"
9,2.97,"Cc1cc(-c2ccnc3[nH]cc(F)c23)ccc1[C@@]1(O)[C@H](C)CN(C2CCC2)C[C@@H]1C [Compound 54, (3R,4s,5S)-1-cyclobutyl-4-(4-(3-fluoro-1H-pyrrolo[2,3-b]pyridin-4-yl)-2-methylphenyl)-3,5-dimethylpiperidin-4-ol]"
10,9.35,"Cc1cc(-c2ccnc3[nH]cc(F)c23)ccc1[C@@]1(O)[C@H](C)CN(C(=O)CN)C[C@@H]1C [Compound 60, 2-amino-1-((3R,4s,5S)-4-(4-(3-fluoro-1H-pyrrolo[2,3-b]pyridin-4-yl)-2-methylphenyl)-4-hydroxy-3,5-dimethylpiperidin-1-yl)ethan-1-one]"
